Experimental data published in patent publication US8017784B2, “Substituted sulfoxide compounds, methods for preparing the same and use thereof” (Livzon Pharmaceutical Group, Inc., priority 2005, dated 2011).

Test system: Acute Gastric Ulcer of Rats
Assay: Effect on acute gastric ulcer of rats (pyloric ligation method, Shay method)
Type: in vivo
Details: for Average Volume of Gastric Juice / Index of Ulcer (sum of the long diameter of each ulcer) / Inhibition Ratio of index of ulcer / Inhibition Ratio of gastric juice: SD female rats, 3 mg/kg via duodenum; for Average Volume of Gastric Juice / Index of Ulcer (sum of the long diameter of each ulcer): 6 hours after dosing; for Inhibition Ratio of index of ulcer / Inhibition Ratio of gastric juice: 6 hours, versus control group; for Inhibition of gastric juice secretion and ulceration compared with racemate: rats, result in words
Procedure: The effect of optically pure (+)/(−)-5-(1H-pyrrol-1-yl)-2-[[(4-methoxy-3-methyl-2-pyridyl)-methyl]sulfinyl]-1-hydro-benzimidazole on the acute gastric ulcer of rats were investigated using a pyloric ligation method (Shay method), and the results were compared with a normal control group and a racemate group. The specific test methods were as follows.
Twenty-six healthy SD female adult rats were divided randomly into 4 groups and fasted, except water, for 24 hours. Each rat was then anesthesized with 30 mg/kg Sodium Pentobarbital and subjected to pyloric ligation. After that, 3 groups of rats (treated group) were administered immediately via dodecadactylon with a racemate, a levo-enantiomer and a dextro-enantiomer of 5-(1H-pyrrol-1-yl)-2-[[(4-methoxy-3-methyl-2-pyridyl)-methyl]sulfinyl]-1-hydro-benzimidazole, respectively, at a dose of 3 mg/kg, and the other group (control group) is administered with the same volume of solvent.
All rats were then fasted including water for 6 hours followed by being sacrificed. The stomach was removed from rats after cardiac orifice ligation, and the volume of gastric juice was collected. After being fixed with 10% formalin solution, the stomach was incised along the greater curvature of stomach, the gastric wall was unwraped, and the degree and number of ulcers of the gastric mucosa were observed visually. Sum of the long diameter of each ulcer was defined as the index of ulcer. All rats were housed in metabolic cages during the test.

With `COc1ccnc(C[S+]([O-])c2nc3cc(-n4cccc4)ccc3[nH]2)c1C` (single isomer, unassigned; (+)) [Dextro-enantiomer, (+)-5-(1H-pyrrol-1-yl)-2-[[(4-methoxy-3-methyl-2-pyridyl)-methyl]sulfinyl]-1-hydro-benzimidazole] the “Average Volume of Gastric Juice” value (3 mg/kg) was 2.6 ± 1.1 mL, the “Index of Ulcer (sum of the long diameter of each ulcer)” value (3 mg/kg) was 6 ± 7 mm and the “Inhibition Ratio of index of ulcer” value was 75.6%. The “Inhibition Ratio of gastric juice” value (3 mg/kg) was 43.2% and the “Inhibition of gastric juice secretion and ulceration compared with racemate” value (3 mg/kg) was “more effective in inhibiting gastric juice secretion and ulceration as compared with their racemate”.
For `COc1ccnc(C[S+]([O-])c2nc3cc(-n4cccc4)ccc3[nH]2)c1C` (single isomer, unassigned; (-)) [Levo-enantiomer, (−)-5-(1H-pyrrol-1-yl)-2-[[(4-methoxy-3-methyl-2-pyridyl)-methyl]sulfinyl]-1-hydro-benzimidazole], the “Average Volume of Gastric Juice” value (3 mg/kg) was 1.4 ± 1.0 mL, the “Index of Ulcer (sum of the long diameter of each ulcer)” value (3 mg/kg) was 6 ± 6 mm and the “Inhibition Ratio of index of ulcer” value was 75.6%. For the same molecule, the “Inhibition Ratio of gastric juice” value (3 mg/kg) was 68.3% and the “Inhibition of gastric juice secretion and ulceration compared with racemate” value (3 mg/kg) was “more effective in inhibiting gastric juice secretion and ulceration as compared with their racemate”.
With `COc1ccnc(C[S+]([O-])c2nc3cc(-n4cccc4)ccc3[nH]2)c1C` (racemic) [Racemate, 5-(1H-pyrrol-1-yl)-2-[[(4-methoxy-3-methyl-2-pyridyl)-methyl]sulfinyl]-1-hydro-benzimidazole, reference compound] the “Average Volume of Gastric Juice” value (3 mg/kg) was 3.2 ± 2.3 mL, the “Index of Ulcer (sum of the long diameter of each ulcer)” value (3 mg/kg) was 14 ± 8 mm and the “Inhibition Ratio of gastric juice” value (3 mg/kg) was 30.8%. The “Inhibition Ratio of index of ulcer” value (3 mg/kg) was 41.8%.
